Measurements from patent EP4818168A1, “FUSED RING COMPOUND, PHARMACEUTICAL COMPOSITION THEREOF AND USE THEREOF” (priority 2023, dated 2025).
Where two headings read alike, the source gives them in different places.

What was measured:
AURKA = target: T1, AURKA (Homo sapiens, UniProt O14965); format: cell-based; details: Jurkat cells, 24 h, Table 2
T1 construct: endogenous in cells; host or cells: Jurkat cells
T1 sequence (O14965 1-403): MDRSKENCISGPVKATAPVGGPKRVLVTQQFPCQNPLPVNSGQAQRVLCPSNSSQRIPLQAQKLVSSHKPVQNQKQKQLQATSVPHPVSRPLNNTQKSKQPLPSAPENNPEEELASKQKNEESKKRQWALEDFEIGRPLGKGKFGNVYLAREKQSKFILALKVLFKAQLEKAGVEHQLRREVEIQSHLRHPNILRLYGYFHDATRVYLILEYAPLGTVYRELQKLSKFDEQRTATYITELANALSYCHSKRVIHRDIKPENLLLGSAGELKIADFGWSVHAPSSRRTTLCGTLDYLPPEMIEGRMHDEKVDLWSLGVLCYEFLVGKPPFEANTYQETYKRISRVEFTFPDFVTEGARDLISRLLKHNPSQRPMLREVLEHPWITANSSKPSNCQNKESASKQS
Method in brief: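 Jurkat cells seeded at 1×10^6 cells/500 µL and treated with compound; lysates run on SDS-PAGE, blotted to nitrocellulose and probed overnight at 4°C for AURKA. Chemiluminescent or fluorescent band intensity fitted to a curve to give DC50 for protein degradation.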

H82 cells = assay: cells; format: cell-based; details: Homo sapiens
Method in brief: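 H82 cells in RPMI1640 + 10% FBS exposed to compound (0.1% DMSO final) for 6 days at 37 °C, 5% CO2. Viability read by CellTiter-Glo ATP luminescence, normalised to DMSO and medium controls; IC50 from nonlinear regression of the dose–survival curve.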

[1] = NCI-H82, H82 cells, 4000 cells/well, CellTiter-Glo, read-out: IC50 in H82 Cells

Row | Compound | Percentage of AURKA Degradation Induced by 100 nM Compound in Jurkat Cells (AURKA) | Percentage of AURKA Degradation Induced by 1 µM Compound in Jurkat Cells (AURKA) | IC50 (H82 cells; [1]) | IC50 (H82 cells; NCI-H82, read-out: IC50 in H82 Cells)
1 | O=C1CCN(c2ccc(N3CCC(N4CCN(C56CC(Nc7ncc8c(n7)-c7ccc(Cl)cc7C(c7c(F)cccc7F)=NC8)(C5)C6)CC4)C3)nc2)C(=O)N1 (stereo not drawn) [Compound A227] | ++ (30% < Degradation ≤ 70%) | + (Degradation ≤ 30%) | < 1000 nM | 
2 | O=C1CCN(c2ccc(N3CCC(C(=O)N4CCN(c5ccc(Nc6ncc7c(n6)-c6ccc(Cl)cc6C(c6c(F)cccc6F)=NC7)cc5)CC4)CC3)nc2)C(=O)N1 [Compound A229] | +++ (Degradation > 70%) | +++ (Degradation > 70%) | < 1000 nM | 
3 | O=C1CCN(c2ccc(N3CCC(CN4CCN(C56CC(Nc7ncc8c(n7)-c7ccc(Cl)cc7C(c7c(F)cccc7F)=NC8)(C5)C6)CC4)C3)nc2)C(=O)N1 (stereo not drawn) [Compound A231] | +++ (Degradation > 70%) | +++ (Degradation > 70%) | < 1000 nM | 
4 | O=C1CCN(c2ccc(N3CCC(N4CCN(c5ccc(Nc6ncc7c(n6)-c6ccc(Cl)cc6C(c6c(F)cccc6F)=NC7)cc5)C5(COC5)C4)CC3)nc2)C(=O)N1 [Compound A233] | ++ (30% < Degradation ≤ 70%) | +++ (Degradation > 70%) | < 1000 nM | 
5 | O=C1CCN(c2cccc(N3CC(C(=O)N4CCOc5ccc(Nc6ncc7c(n6)-c6ccc(Cl)cc6C(c6c(F)cccc6F)=NC7)cc5C4)C3)c2)C(=O)N1 [Compound A235] | ++ (30% < Degradation ≤ 70%) | + (Degradation ≤ 30%) | < 1000 nM | 
6 | CN1CCN(CC2CN(c3cccc(N4CCC(=O)NC4=O)c3)C2)Cc2cc(Nc3ncc4c(n3)-c3ccc(Cl)cc3C(c3c(F)cccc3F)=NC4)ccc21 [Compound A236] | +++ (Degradation > 70%) | ++ (30% < Degradation ≤ 70%) | < 1000 nM | 
7 | O=C1CCN(c2cccc(N3CC(CN4CCOc5ccc(Nc6ncc7c(n6)-c6ccc(Cl)cc6C(c6c(F)cccc6F)=NC7)cc5C4)C3)c2)C(=O)N1 [Compound A237] | +++ (Degradation > 70%) | +++ (Degradation > 70%) | < 1000 nM | 
8 | CN1CCN(CC2CCN(c3cccc(N4CCC(=O)NC4=O)c3)CC2)Cc2cc(Nc3ncc4c(n3)-c3ccc(Cl)cc3C(c3c(F)cccc3F)=NC4)ccc21 [Compound A239] | +++ (Degradation > 70%) | +++ (Degradation > 70%) | < 1000 nM | 
9 | O=C1CCN(c2cccc(N3CCC(CN4CCOc5ccc(Nc6ncc7c(n6)-c6ccc(Cl)cc6C(c6c(F)cccc6F)=NC7)cc5C4)CC3)c2)C(=O)N1 [Compound A240] | +++ (Degradation > 70%) | +++ (Degradation > 70%) | < 1000 nM | 
10 | O=C1CCN(c2ccc(N3CCN(C(=O)C4CCN(C56CC(Nc7ncc8c(n7)-c7ccc(Cl)cc7C(c7c(F)cccc7F)=NC8)(C5)C6)CC4)CC3)nc2)C(=O)N1 [Compound A243] | +++ (Degradation > 70%) | +++ (Degradation > 70%) | < 1000 nM | 
11 | Cn1nc(N2CCC(=O)NC2=O)c2cc(F)c(N3CCN(C4CN(c5cccc(Nc6ncc7c(n6)-c6ccc(Cl)cc6C(c6c(F)cccc6F)=NC7)c5)C4)CC3)cc21 [Compound A244] | ++ (30% < Degradation ≤ 70%) | +++ (Degradation > 70%) | < 1000 nM | 
12 | Cn1nc(N2CCC(=O)NC2=O)c2cc(F)c(N3CCN(CC4CN(c5cccc(Nc6ncc7c(n6)-c6ccc(Cl)cc6C(c6c(F)cccc6F)=NC7)c5)C4)CC3)cc21 [Compound A245] | +++ (Degradation > 70%) | +++ (Degradation > 70%) | < 1000 nM | 
13 | O=C1CCN(c2ccc(N3CCN(CC4CN(c5ccc(Nc6ncc7c(n6)-c6ccc(Cl)cc6C(c6c(F)cccc6F)=NC7)cn5)C4)CC3)nc2)C(=O)N1 [Compound A248] | +++ (Degradation > 70%) | +++ (Degradation > 70%) | < 1000 nM | 
14 | O=C1CCN(c2ccc(C3CCN(CC4CN(c5ccc(Nc6ncc7c(n6)-c6ccc(Cl)cc6C(c6c(F)cccc6F)=NC7)cc5)C4)CC3)nc2)C(=O)N1 [Compound A249] | +++ (Degradation > 70%) | +++ (Degradation > 70%) | < 1000 nM | 
15 | O=C1CCN(c2ccc(N3CCC(CN4CCN(C56CC(Nc7ncc8c(n7)-c7ccc(Cl)cc7C(c7c(F)cccc7F)=NC8)(C5)C6)C(=O)C4)CC3)nc2)C(=O)N1 [Compound A250] | +++ (Degradation > 70%) | +++ (Degradation > 70%) | < 1000 nM | 
16 | N#CC1CN(C2CCN(c3ccc(N4CCC(=O)NC4=O)cn3)CC2)CCN1c1ccc(Nc2ncc3c(n2)-c2ccc(Cl)cc2C(c2c(F)cccc2F)=NC3)cc1 (stereo not drawn) [Compound A251] | +++ (Degradation > 70%) | +++ (Degradation > 70%) | < 1000 nM | 
17 | O=C1CCN(c2ccc(N3CCN(C4(C5CN(c6ccc(Nc7ncc8c(n7)-c7ccc(Cl)cc7C(c7c(F)cccc7F)=NC8)cc6)C5)CC4)CC3)nc2)C(=O)N1 [Compound A252] | +++ (Degradation > 70%) | +++ (Degradation > 70%) | < 1000 nM | 
18 | COc1cccc(F)c1C1=NCc2cnc(Nc3ccc(N4CC(CN5CCN(c6ccc(N7CCC(=O)NC7=O)cn6)CC5)C4)cc3)nc2-c2ccc(Cl)cc21 [Compound A253] | +++ (Degradation > 70%) | +++ (Degradation > 70%) | < 1000 nM | 
19 | O=C1CCN(c2ccc(N3CCC(OC4CN(c5ccc(Nc6ncc7c(n6)-c6ccc(Cl)cc6C(c6c(F)cccc6F)=NC7)cc5)C4)CC3)nc2)C(=O)N1 [Compound A254] | +++ (Degradation > 70%) | ++ (30% < Degradation ≤ 70%) | < 1000 nM | 
20 | O=C1CCN(c2ccc(N3CCN(C(=O)N4CCN(C56CC(Nc7ncc8c(n7)-c7ccc(Cl)cc7C(c7c(F)cccc7F)=NC8)(C5)C6)CC4)CC3)nc2)C(=O)N1 [Compound A255] | ++ (30% < Degradation ≤ 70%) | ++ (30% < Degradation ≤ 70%) | < 1000 nM | 
21 | COc1cc(Nc2ncc3c(n2)-c2ccc(Cl)cc2C(c2c(F)cccc2OC)=NC3)ccc1N1CCN(C2CCN(c3ccc(N4CCC(=O)NC4=O)cn3)CC2)CC1 [Compound A256] | +++ (Degradation > 70%) | +++ (Degradation > 70%) | < 1000 nM | 
22 | O=C1CCN(c2ccc(N3CCN(C(=O)N4CCN(c5ccc(Nc6ncc7c(n6)-c6ccc(Cl)cc6C(c6c(F)cccc6F)=NC7)cc5)CC4)CC3)nc2)C(=O)N1 [Compound A258] | +++ (Degradation > 70%) | +++ (Degradation > 70%) | < 1000 nM | 
23 | O=C1CCN(c2ccc(N3CCN(CC4(F)CN(c5ccc(Nc6ncc7c(n6)-c6ccc(Cl)cc6C(c6c(F)cccc6F)=NC7)cc5)C4)CC3)nc2)C(=O)N1 [Compound A259] | +++ (Degradation > 70%) | +++ (Degradation > 70%) | < 1000 nM | 
24 | COc1cc(Nc2ncc3c(n2)-c2ccc(Cl)cc2C(c2c(F)cccc2OC)=NC3)ccc1N1CC(CN2CCN(c3ccc(N4CCC(=O)NC4=O)cn3)CC2)C1 [Compound A261] | +++ (Degradation > 70%) | +++ (Degradation > 70%) | < 1000 nM | 
25 | O=C1CCN(c2ccc(N3CCC(N4CCN(c5ccc(Nc6ncc7c(n6)-c6ccc(Cl)cc6C(c6c(F)cccc6F)=NC7)cc5)CC4)C(F)(F)C3)nc2)C(=O)N1 (stereo not drawn) [Compound A263] | +++ (Degradation > 70%) | +++ (Degradation > 70%) |  | < 1000 nM
